Assay results from ChEMBL document CHEMBL5055643, “Sophoraflavanone G Resensitizes ABCG2-Overexpressing Multidrug-Resistant Non-Small-Cell Lung Cancer Cells to Chemotherapeutic Drugs” (J Nat Prod, 2021).

What was measured:
[1] = tested on: HEK293; experiment: Chemo-sensitizing activity against human HEK293 cells assessed as reversal fold at 1 uM measured after 72 hrs in presence of mitoxatrone by CCK8 assay relative to control; format: functional
[2] = tested on: OVCAR-8; experiment: Chemo-sensitizing activity against human OVCAR-8 cells assessed as reversal fold at 2 uM measured after 72 hrs in presence of paclitaxel by CCK8 assay relative to control; format: functional
[3] = tested on: HEK293; experiment: Cytotoxicity against ABCG2-overexpressing human HEK293/482R cells assessed as reduction in cell viability measured after 72 hrs by CCK8 assay; format: ADME, cell-based; settings: HEK293, 72 h
[4] = tested on: A549; experiment: Chemo-sensitizing activity against becatecarin-selected ABCG2-overexpressing human A549/Bec150 cells assessed as reversal fold at 5 uM measured after 72 hrs in presence of mitoxantrone by CCK8 assay relative to control; format: functional
[5] = tested on: OVCAR-8; experiment: Chemo-sensitizing activity against human OVCAR-8 cells assessed as reversal fold at 1 uM measured after 72 hrs in presence of paclitaxel by CCK8 assay relative to control; format: functional
[6] = tested on: HEK293; experiment: Chemo-sensitizing activity against human HEK293 cells assessed as reversal fold at 1 uM measured after 72 hrs in presence of paclitaxel by CCK8 assay relative to control; format: functional
[7] = tested on: NCI-H460; experiment: Cytotoxicity against mitoxantrone-selected ABCG2-overexpressing human NCI-H460/MX20 cells assessed as reduction in cell viability measured after 72 hrs by CCK8 assay; format: ADME, cell-based; settings: NCI-H460, 72 h
[8] = tested on: NCI-H460; experiment: Chemo-sensitizing activity against mitoxantrone-selected ABCG2-overexpressing human NCI-H460/MX20 cells assessed as reversal fold at 2 uM measured after 72 hrs in presence of mitoxantrone by CCK8 assay relative to control; format: functional
[9] = tested on: HEK293; experiment: Chemo-sensitizing activity against human HEK293 cells assessed as reversal fold at 1 uM measured after 72 hrs in presence of topotecan by CCK8 assay relative to control; format: functional
[10] = tested on: NCI/ADR-RES; experiment: Chemo-sensitizing activity against ABCB1-overexpressing human NCI/ADR-RES cells assessed as reversal fold at 1 uM measured after 72 hrs in presence of colchicine by CCK8 assay relative to control; format: functional
[11] = tested on: KB 3-1; experiment: Chemo-sensitizing activity against human KB 3-1 cells assessed as reversal fold at 2 uM measured after 72 hrs in presence of vincristine by CCK8 assay relative to control; format: functional
[12] = Cytotoxicity against human HEK293 cells assessed as cell viability at 1 to 5 uM measured after 72 hrs by CCK8 assay; format: cell-based; settings: dose 1-5 µM, read-out: Activity
[13] = biological target: T1, ABCG2 (Homo sapiens, UniProt Q9UNQ0); experiment: Inhibition of ABCG2 in becatecarin-selected ABCG2-overexpressing human A549/Bec150 cells assessed as increase in intracellular mitoxantrone accumulation at 20 uM incubated for 1 hr in presence of mitoxantrone by flow cytometry; format: cell-based; settings: probe mitoxantrone
T1 sequence (Q9UNQ0 whole entry): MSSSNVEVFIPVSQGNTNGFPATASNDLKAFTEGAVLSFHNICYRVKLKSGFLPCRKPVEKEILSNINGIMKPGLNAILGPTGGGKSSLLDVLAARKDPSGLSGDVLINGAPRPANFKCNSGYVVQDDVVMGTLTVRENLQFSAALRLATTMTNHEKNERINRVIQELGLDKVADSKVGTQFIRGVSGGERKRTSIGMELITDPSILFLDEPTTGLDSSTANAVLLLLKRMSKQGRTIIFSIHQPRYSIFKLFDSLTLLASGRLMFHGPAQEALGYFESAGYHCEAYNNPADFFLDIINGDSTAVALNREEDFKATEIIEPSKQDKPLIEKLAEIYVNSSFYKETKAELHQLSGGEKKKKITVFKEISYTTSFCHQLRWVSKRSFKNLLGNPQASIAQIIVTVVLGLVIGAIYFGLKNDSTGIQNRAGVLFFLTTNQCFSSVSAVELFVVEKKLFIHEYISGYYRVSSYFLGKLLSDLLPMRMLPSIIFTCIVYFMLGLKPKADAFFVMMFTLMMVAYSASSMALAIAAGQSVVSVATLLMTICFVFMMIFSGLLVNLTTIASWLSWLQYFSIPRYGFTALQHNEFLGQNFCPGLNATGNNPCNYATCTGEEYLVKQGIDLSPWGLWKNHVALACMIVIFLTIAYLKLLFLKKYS

[14] = tested on: HEK293; experiment: Chemo-sensitizing activity against ABCB1-overexpressing human HEK293/MDR19 cells assessed as reversal fold at 1 uM measured after 72 hrs in presence of paclitaxel by CCK8 assay relative to control; format: functional
[15] = tested on: NCI-H460; experiment: Chemo-sensitizing activity against human NCI-H460 cells assessed as reversal fold at 5 uM measured after 72 hrs in presence of mitoxantrone by CCK8 assay relative to control; format: functional
[16] = tested on: A549; experiment: Chemo-sensitizing activity against becatecarin-selected ABCG2-overexpressing human A549/Bec150 cells assessed as reversal fold at 2 uM measured after 72 hrs in presence of SN-38 by CCK8 assay relative to control; format: functional
[17] = tested on: HEK293; experiment: Chemo-sensitizing activity against human HEK293 cells assessed as reversal fold at 1 uM measured after 72 hrs in presence of colchicine by CCK8 assay relative to control; format: functional
[18] = tested on: HEK293; experiment: Chemo-sensitizing activity against ABCG2-overexpressing human HEK293/482R cells assessed as reversal fold at 5 uM measured after 72 hrs in presence of SN-38 by CCK8 assay relative to control; format: functional
[19] = tested on: HEK293; experiment: Chemo-sensitizing activity against human HEK293 cells assessed as reversal fold at 2 uM measured after 72 hrs in presence of SN-38 by CCK8 assay relative to control; format: functional
[20] = tested on: KB-V1; experiment: Chemo-sensitizing activity against ABCB1-overexpressing human KB-V1 cells assessed as reversal fold at 5 uM measured after 72 hrs in presence of paclitaxel by CCK8 assay relative to control; format: functional
[21] = tested on: A549; experiment: Chemo-sensitizing activity against human A549 cells assessed as reversal fold at 2 uM measured after 72 hrs in presence of topotecan by CCK8 assay relative to control; format: functional
[22] = tested on: HEK293; experiment: Chemo-sensitizing activity against ABCB1-overexpressing human HEK293/MDR19 cells assessed as reversal fold at 2 uM measured after 72 hrs in presence of colchicine by CCK8 assay relative to control; format: functional
[23] = tested on: HEK293; experiment: Chemo-sensitizing activity against human HEK293 cells assessed as reversal fold at 2 uM measured after 72 hrs in presence of vincristine by CCK8 assay relative to control; format: functional
[24] = tested on: KB 3-1; experiment: Chemo-sensitizing activity against human KB 3-1 cells assessed as reversal fold at 1 uM measured after 72 hrs in presence of vincristine by CCK8 assay relative to control; format: functional
[25] = tested on: NCI-H460; experiment: Chemo-sensitizing activity against human NCI-H460 cells assessed as reversal fold at 1 uM measured after 72 hrs in presence of topotecan by CCK8 assay relative to control; format: functional
[26] = tested on: NCI/ADR-RES; experiment: Chemo-sensitizing activity against ABCB1-overexpressing human NCI/ADR-RES cells assessed as reversal fold at 2 uM measured after 72 hrs in presence of paclitaxel by CCK8 assay relative to control; format: functional
[27] = tested on: HEK293; experiment: Chemo-sensitizing activity against human HEK293 cells assessed as reversal fold at 1 uM measured after 72 hrs in presence of vincristine by CCK8 assay relative to control; format: functional

C=C(C)[C@H](CC=C(C)C)Cc1c(O)cc(O)c2c1O[C@H](c1ccc(O)cc1O)CC2=O [SOPHORAFLAVANONE G]
fold change (FC) [1]: 1 | fold change (FC) [2]: 1 | IC50 [3]: 49.7 µM | fold change (FC) [4]: 9.1 | fold change (FC) [5]: 0.8 | fold change (FC) [6]: 1.1 | IC50 [7]: 22.1 µM | fold change (FC) [8]: 2.7 | fold change (FC) [9]: 0.9 | fold change (FC) [10]: 0.9 | fold change (FC) [11]: 1.2 | viability at 72 h, 5 µM [12]: > 90% | inhibition at 1 h, 20 µM [13]: 100% | fold change (FC) [14]: 0.8 | fold change (FC) [15]: 2.2 | fold change (FC) [16]: 2.7 | fold change (FC) [17]: 1 | fold change (FC) [18]: 6.4 | fold change (FC) [19]: 0.9 | fold change (FC) [20]: 1.6 | fold change (FC) [21]: 1.2 | fold change (FC) [22]: 0.8 | fold change (FC) [23]: 0.6 | fold change (FC) [24]: 1.1 | fold change (FC) [25]: 1.6 | fold change (FC) [26]: 1.1 | fold change (FC) [27]: 1
